Data as given in PubChem BioAssay (NCI).
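All cell lines were grown in 96-well plates and treated with compound for 48 hours. GI50: concentration for 50% inhibition of growth. TGI is the concentration that stops growth completely.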

Columns and labels:
Assay in all cases: NCI anticancer screen, dose series, 48 h
OVCAR-8 ovarian = system: OVCAR-8 ovarian
IGROV1 ovarian = system: IGROV1 ovarian
OVCAR-4 ovarian = system: OVCAR-4 ovarian
UACC-62 melanoma = system: UACC-62 melanoma
SK-MEL-2 melanoma = system: SK-MEL-2 melanoma
UO-31 renal = system: UO-31 renal
HOP-62 NSCLC = system: HOP-62 NSCLC
DU-145 prostate = system: DU-145 prostate
COLO 205 colon = system: COLO 205 colon
HOP-92 NSCLC = system: HOP-92 NSCLC
HCT-116 colon = system: HCT-116 colon
U251 CNS = system: U251 CNS
SF-268 CNS = system: SF-268 CNS
NCI-H226 lung = system: NCI-H226 lung
NCI-H522 lung = system: NCI-H522 lung
HCC-2998 colon = system: HCC-2998 colon
NCI/ADR-RES ovarian = system: NCI/ADR-RES ovarian
CAKI-1 renal = system: CAKI-1 renal
MDA-MB-435 = system: MDA-MB-435
786-0 renal = system: 786-0 renal
OVCAR-3 ovarian = system: OVCAR-3 ovarian
K-562 leukemia = system: K-562 leukemia
A549 NSCLC = system: A549 NSCLC
EKVX NSCLC = system: EKVX NSCLC
MCF7 breast = system: MCF7 breast
ACHN renal = system: ACHN renal
T-47D breast = system: T-47D breast
SF-539 CNS = system: SF-539 CNS
SW-620 colon = system: SW-620 colon
PC-3 prostate = system: PC-3 prostate
SK-MEL-28 melanoma = system: SK-MEL-28 melanoma
HL-60(TB) leukemia = system: HL-60(TB) leukemia
KM12 colon = system: KM12 colon
HCT-15 colon = system: HCT-15 colon
MOLT-4 leukemia = system: MOLT-4 leukemia
SK-OV-3 ovarian = system: SK-OV-3 ovarian
SF-295 CNS = system: SF-295 CNS
OVCAR-5 ovarian = system: OVCAR-5 ovarian
SNB-19 CNS = system: SNB-19 CNS
NCI-H460 lung = system: NCI-H460 lung
SNB-75 CNS = system: SNB-75 CNS
UACC-257 melanoma = system: UACC-257 melanoma
SN12C renal = system: SN12C renal
MALME-3M melanoma = system: MALME-3M melanoma
RPMI-8226 leukemia = system: RPMI-8226 leukemia
HT29 colon = system: HT29 colon
RXF 393 renal = system: RXF 393 renal
NCI-H23 lung = system: NCI-H23 lung
M14 melanoma = system: M14 melanoma
SK-MEL-5 melanoma = system: SK-MEL-5 melanoma
SR leukemia = system: SR leukemia
MDA-MB-231 breast = system: MDA-MB-231 breast
TK-10 renal = system: TK-10 renal
BT-549 breast = system: BT-549 breast
A498 renal = system: A498 renal
HS 578T breast = system: HS 578T breast
LOX IMVI melanoma = system: LOX IMVI melanoma
CCRF-CEM leukemia = system: CCRF-CEM leukemia

## S=c1[nH]n2c(COc3ccc(Cl)cc3)nnc2s1
OVCAR-8 ovarian
  TGI: > 100 µM
IGROV1 ovarian
  TGI: > 100 µM
OVCAR-4 ovarian
  TGI: > 100 µM
UACC-62 melanoma
  TGI: > 100 µM
SK-MEL-2 melanoma
  TGI: > 100 µM
UO-31 renal
  TGI: > 100 µM
HOP-62 NSCLC
  TGI: > 100 µM
DU-145 prostate
  TGI: > 100 µM
COLO 205 colon
  TGI: > 100 µM
HOP-92 NSCLC
  TGI: > 100 µM
HCT-116 colon
  TGI: > 100 µM
U251 CNS
  TGI: > 100 µM
SF-268 CNS
  TGI: > 100 µM
NCI-H226 lung
  TGI: > 100 µM
NCI-H522 lung
  TGI: > 100 µM
HCC-2998 colon
  TGI: > 100 µM
NCI/ADR-RES ovarian
  TGI: > 100 µM
CAKI-1 renal
  TGI: > 100 µM
MDA-MB-435
  TGI: > 100 µM
786-0 renal
  TGI: > 100 µM
OVCAR-3 ovarian
  TGI: > 100 µM
K-562 leukemia
  TGI: > 100 µM
A549 NSCLC
  TGI: > 100 µM
EKVX NSCLC
  TGI: > 100 µM
MCF7 breast
  TGI: > 100 µM
ACHN renal
  TGI: > 100 µM
T-47D breast
  TGI: > 100 µM
SF-539 CNS
  TGI: > 100 µM
SW-620 colon
  TGI: > 100 µM
PC-3 prostate
  TGI: > 100 µM
SK-MEL-28 melanoma
  TGI: > 100 µM
HL-60(TB) leukemia
  TGI: > 100 µM
KM12 colon
  TGI: > 100 µM
HCT-15 colon
  TGI: > 100 µM
MOLT-4 leukemia
  TGI: > 100 µM
SK-OV-3 ovarian
  TGI: > 100 µM
SF-295 CNS
  TGI: > 100 µM
OVCAR-5 ovarian
  TGI: > 100 µM
SNB-19 CNS
  TGI: > 100 µM
NCI-H460 lung
  TGI: > 100 µM
SNB-75 CNS
  TGI: > 100 µM
UACC-257 melanoma
  TGI: > 100 µM
SN12C renal
  TGI: > 100 µM
MALME-3M melanoma
  TGI: > 100 µM
RPMI-8226 leukemia
  TGI: > 100 µM
HT29 colon
  TGI: > 100 µM
RXF 393 renal
  TGI: > 100 µM
NCI-H23 lung
  TGI: > 100 µM
M14 melanoma
  TGI: > 100 µM
SK-MEL-5 melanoma
  TGI: > 100 µM
SR leukemia
  TGI: > 100 µM
MDA-MB-231 breast
  TGI: > 100 µM
TK-10 renal
  TGI: > 100 µM

## COc1cc2c3c(n(CCN4CCOCC4)c(=O)c2cc1OC)-c1ccccc1C3=O
BT-549 breast
  GI50: > 100 µM
  TGI: > 100 µM
OVCAR-8 ovarian
  GI50: > 100 µM
  TGI: > 100 µM
IGROV1 ovarian
  GI50: 17.2 µM
  TGI: > 100 µM
OVCAR-4 ovarian
  GI50: > 100 µM
  TGI: > 100 µM
UACC-62 melanoma
  GI50: 56.8 µM
  TGI: > 100 µM
SK-MEL-2 melanoma
  GI50: > 100 µM
  TGI: > 100 µM
UO-31 renal
  GI50: 63.3 µM
  TGI: > 100 µM
HOP-62 NSCLC
  GI50: 89.4 µM
  TGI: > 100 µM
A498 renal
  GI50: 85.7 µM
  TGI: > 100 µM
HS 578T breast
  GI50: > 100 µM
  TGI: > 100 µM
DU-145 prostate
  GI50: > 100 µM
  TGI: > 100 µM
COLO 205 colon
  GI50: > 100 µM
  TGI: > 100 µM
LOX IMVI melanoma
  GI50: 45.5 µM
  TGI: > 100 µM
HOP-92 NSCLC
  GI50: > 100 µM
  TGI: > 100 µM
HCT-116 colon
  GI50: 59.7 µM
  TGI: > 100 µM
U251 CNS
  GI50: 62.3 µM
  TGI: > 100 µM
SF-268 CNS
  GI50: > 100 µM
  TGI: > 100 µM
NCI-H226 lung
  GI50: > 100 µM
  TGI: > 100 µM
NCI-H522 lung
  GI50: 21.2 µM
  TGI: > 100 µM
HCC-2998 colon
  GI50: 33.8 µM
  TGI: > 100 µM
CCRF-CEM leukemia
  GI50: 19.7 µM
  TGI: > 100 µM
NCI/ADR-RES ovarian
  GI50: > 100 µM
  TGI: > 100 µM
CAKI-1 renal
  GI50: 32.9 µM
  TGI: 72.9 µM
MDA-MB-435
  GI50: > 100 µM
  TGI: > 100 µM
786-0 renal
  GI50: 88.9 µM
  TGI: > 100 µM
OVCAR-3 ovarian
  GI50: > 100 µM
  TGI: > 100 µM
K-562 leukemia
  GI50: 99.3 µM
  TGI: > 100 µM
A549 NSCLC
  GI50: > 100 µM
  TGI: > 100 µM
EKVX NSCLC
  GI50: > 100 µM
  TGI: > 100 µM
MCF7 breast
  GI50: 37.8 µM
  TGI: > 100 µM
ACHN renal
  GI50: 35 µM
  TGI: > 100 µM
T-47D breast
  GI50: 27.4 µM
  TGI: 88 µM
SF-539 CNS
  GI50: > 100 µM
  TGI: > 100 µM
SW-620 colon
  GI50: 89.2 µM
  TGI: > 100 µM
PC-3 prostate
  GI50: > 100 µM
  TGI: > 100 µM
SK-MEL-28 melanoma
  GI50: > 100 µM
  TGI: > 100 µM
HL-60(TB) leukemia
  GI50: 35.7 µM
  TGI: > 100 µM
KM12 colon
  GI50: > 100 µM
  TGI: > 100 µM
HCT-15 colon
  GI50: > 100 µM
  TGI: > 100 µM
MOLT-4 leukemia
  GI50: 55.5 µM
  TGI: > 100 µM
SK-OV-3 ovarian
  GI50: 90.4 µM
  TGI: > 100 µM
SF-295 CNS
  GI50: 34.6 µM
  TGI: > 100 µM
OVCAR-5 ovarian
  GI50: > 100 µM
  TGI: > 100 µM
SNB-19 CNS
  GI50: > 100 µM
  TGI: > 100 µM
NCI-H460 lung
  GI50: 45.1 µM
  TGI: > 100 µM
SNB-75 CNS
  GI50: > 100 µM
  TGI: > 100 µM
UACC-257 melanoma
  GI50: > 100 µM
  TGI: > 100 µM
SN12C renal
  GI50: > 100 µM
  TGI: > 100 µM
MALME-3M melanoma
  GI50: > 100 µM
  TGI: > 100 µM
RPMI-8226 leukemia
  GI50: 81 µM
  TGI: > 100 µM
HT29 colon
  GI50: > 100 µM
  TGI: > 100 µM
RXF 393 renal
  GI50: > 100 µM
  TGI: > 100 µM
M14 melanoma
  GI50: > 100 µM
  TGI: > 100 µM
SK-MEL-5 melanoma
  GI50: > 100 µM
  TGI: > 100 µM
MDA-MB-231 breast
  GI50: > 100 µM
  TGI: > 100 µM
TK-10 renal
  GI50: > 100 µM
  TGI: > 100 µM
